Tests used:
Type in all cases: cell-based
[1] = tested on: HL-60 cells (human acute myeloid leukemia cells); test: alamarBlue proliferation assay with HL-60 cells; settings: 120 h, 5 days, relative to DMSO baseline level of 1.0, read-out: AVEw, weighted arithmetic mean of normalized fluorescence intensity values (Activity Range), HL-60 proliferation
Description: (§1) The antiproliferative activities of compounds falling under formula I, formula II, formula III, formula IV and formula V were investigated on cells or cell lines originating from a disorder of the myeloid cell compartment, the neuroendocrine system, the cervix, and the mucosal epithelium, as well as from the skin epithelium. To this end, HL-60 cells, TT cells, HeLa cells, CAL-27 cells and human primary epidermal keratinocytes (HPEK) were seeded into 96-well plates suitable for fluorescence assays (CORNING #3598) at following initial cell numbers: 1000 cells per well for HL-60; 9000 cells per well for TT; 2000 cells per well for HeLa, 2000 cells per well for CAL-27, 2000 cells per well for HPEK. The cells were treated with compounds at indicated final concentrations (diluted from the 1000× stock-solutions in DMSO to a final DMSO concentration of 0.1% v/v) or with the empty carrier DMSO at 0.1% v/v as control for 5 days. At day 5 after starting the treatments the cells were subjected to the alamarBlue® Proliferation Assay (Bio-Rad Serotec GmbH, BUF012B) according to the protocol of the manufacturer. The readout was taken with a multi-well plate-reader in the fluorescence mode with applying a filter for excitation at 560 nm (band width 10 nm) and for emission at 590 nm (band width 10 nm). Resveratrol (RES) treatment was included as control for growth inhibition.
(§2) The assays were performed in duplicate or more replicates of independent single experiments each containing a six-fold replicate for every condition. For every individual plate, the measured fluorescence intensity values of the conditions with compound treatment were normalized against the corresponding equally weighted arithmetic mean of the fluorescence intensity values of the six DMSO treated control wells in order to obtain the relative values to a baseline level of 1.0. The statistical calculations were performed in analogy to the luciferase assay as described above. To this end, two independent outlier analyses were performed according to the methods by Peirce and Chauvenet (Ross, Journal of Engineering Technology 2003, 1-12). Outliers confirmed by at least one of the methods were excluded from the calculations but not more than one value out of six per compound within a single experiment. The weighted arithmetic mean AVEw for each compound was calculated from the normalized values over all independent replicates of the single experiments comprising the six replicates each. The corresponding standard deviation for the weighted arithmetic mean was calculated according to the method described by Bronstein et al. (Bronstein, Semendjajew, Musiol, Mühlig, Taschenbuch der Mathematik, 5th edition 2001 (German), publisher: Verlag Harri Deutsch, Frankfurt am Main and Thun) and was combined with the Gauß′ error propagation associated with the performed calculation for the normalization. The resulting standard deviation is herein referred to as “combined standard deviation”.
HL-60 cells were cultivated according to the protocol of the provider in RPMI 1640 medium (Fisherscientific, #11554526) containing 10% fetal bovine serum (Fisherscientific, #15517589).
(§3) A compound is considered as a growth inhibitor of HL-60 cells, if—at a reference concentration of 20 μM—the weighted arithmetic mean of the normalized fluorescence intensity values after addition of the corresponding combined standard deviation amounts to 0.9 or lower, in particular to 0.8 or lower, 0.7 or lower, 0.6 or lower, 0.4 or lower, and 0.2 or lower, relative to the overall basis level of 1.0. The overall basis level was calculated as the weighted arithmetic mean of all normalized values from the DMSO control measurements in analogy to the calculations performed for the test-compounds. The corresponding combined standard deviation for the DMSO values amounts to less than 1·10^−2.

[2] = tested on: CAL-27 cells (human tongue squamous cell carcinoma cells); test: alamarBlue proliferation assay with CAL-27 cells; settings: Homo sapiens, 120 h, 20 μM, 5 days, relative to DMSO baseline level of 1.0, read-out: AVEw, weighted arithmetic mean of normalized fluorescence intensity values (Activity Range), CAL-27 proliferation
Description: as §1, §2
CAL-27 cells were cultivated according to the protocol of the provider (but at 5% instead of 10% CO2) in DMEM medium (Fisherscientific, #11584456) containing 10% fetal bovine serum (Fisherscientific, #15517589).
as §3, with “CAL-27” for “HL-60”

[3] = tested on: Notch signaling (hNotch1ΔE, human Notch1 receptor) in HeLa cells; test: Notch reporter assay (luciferase luminescence readout in transfected HeLa cells); settings: Homo sapiens, 20 hours, relative to DMSO baseline level of 1.0, read-out: AVEw, weighted arithmetic mean of double-normalized Notch-reporter luciferase luminescence values (Activity Range)
Description: An according Notch-reporter assay, i.e. a luciferase-based luminescence readout, was used here to quantify the ability of the claimed small molecules to augment Notch signaling in a cellular system. For this purpose, HeLa cells, obtainable from the American Type Culture Collection (ATCC) under the accession number ATCC-CCL-2, were transiently transfected for 24 hours using FuGENE® HD (Promega, #E2311) as transfection reagent with expression vectors of a membrane-tethered form of the constitutively active intracellular domain of the human Notch1 receptor (hNotch1ΔE) to activate the signaling cascade (BPS Bioscience, human analogue to Notch Pathway Reporter Kit #60509 component C), a Firefly luciferase being expressed under the control of a Notch-responsive promoter to monitor Notch signaling (BPS Bioscience, Notch Pathway Reporter Kit #60509, CSL luciferase reporter vector from component A not premixed with Renilla luciferase vector), and a Renilla luciferase being constitutively expressed in a Notch signaling independent manner to include a measure for the cell number per sample (Promega, pRL-SV40, #E2231). HeLa cells were cultivated according to the protocol of the provider in DMEM medium (Fisherscientific, #11584456) containing 10% fetal bovine serum (Fisherscientific, #15517589). The transfection was carried out in a 100 mm-culture dish (StarLab, #CC7682-3394) with cells being properly attached to the plate at a cell confluency of 80-90% in a total volume of 7 mL culture medium. Per dish to be transfected, a transfection mix was prepared by adding to 238 μL Opti-MEM (Fisherscientific, #10149832) 40 μL of the hNotch1ΔE expression vector (100 ng/μL), 80 μL of the CSL luciferase reporter vector (40 ng/μL), 4 μL of the pRL-SV40-Renilla luciferase vector (10 ng/μL), and in the last step 18.1 μL of FuGENE® HD. After addition of FuGENE® HD the transfection mix was let stand for 15 min at room temperature and hereafter equally distributed into the culture dish. Subsequently, i.e. after 24 hours of transfection, the transfected cells (10.000 cells per well) were incubated with the test-compounds at a final concentration of 10 μM (diluted from 10 mM stock-solutions in DMSO to a final DMSO concentration of 0.1% v/v) or with the empty carrier DMSO at 0.1% v/v as control for 20 hours in 96-well plates suitable for luminescence readouts (CORNING, #3610). Hereafter, the cells were lysed with 30 μL per well of Passive Lysis Buffer (Promega, #E194A, component of Dual-Luciferase® Reporter Assay System, #E1910) and the Firefly as well as Renilla luciferase values were measured with a luminescence reader with applying 15 μL per well each of the corresponding enzyme substrates needed to create the luminescence signals (Promega, Dual-Luciferase® Reporter Assay System, #E1910).
The suitability of the assays for monitoring Notch signaling was controlled by additionally including a generally accepted commercial Notch inhibitor, i.e. DAPT, as negative control, as well as the reported Notch enhancer resveratrol (RES) as positive control (Pinchot et al., Cancer 2011, 117, 1386-1398; Truong et al., Ann. Surg. Oncol. 2011, 18, 1506-1511; Yu et al., Mol. Cancer Ther. 2013, 12, 1276-1287). Both control compounds were likewise tested at 10 μM.
Per single experiment the measurement was performed in six replicates per compound. For every compound, this experiment was repeated in three or more independent replicates. The values of the Notch-reporter luciferase were normalized by division through the corresponding individual Notch-independent Renilla values in order to eliminate the impact of variation in the absolute cell-numbers in between the samples. For every individual plate, a second normalization was performed against the equally weighted arithmetic mean (here abbreviated as AVE) of the six associated Renilla-normalized DMSO-control values within a single experiment in order to obtain the relative values to a baseline level of 1.0. […]

Cc1ccc(Oc2ccc(C(=O)NO)cc2)cc1 [Compound 164, N-hydroxy-4-(p-tolyltoxy)benzamide]
activity at 20 µM [1]: 40 to 60% | activity at 20 µM [2]: 70 to 80%

CNC(=O)c1ccc(Oc2ccc(C3CC4CCC3CC4)cc2)cc1 (stereo not shown) [Compound 211, 4-(4-((1s,4s)-bicyclo[2.2.2]octan-2-yl)phenoxy)-N-methylbenzamide]
activity at 20 µM [1]: 20 to 40% | activity at 20 µM [2]: 40 to 60%

CN(C)C(=O)c1ccc(Oc2ccc(C3C[C@@H]4CC[C@H]3C4)cc2)cc1 (stereo partly drawn) [Compound 236, 4-(4-((1S,4R)-bicyclo[2.2.1]heptan-2-yl)phenoxy)-N,N-dimethylbenzamide]
activity at 20 µM [1]: 40 to 60% | activity at 20 µM [2]: 80 to 90%

CN(C)C(=O)c1ccc(Oc2ccc(C34CC5CC(CC(C5)C3)C4)cc2)cc1 [Compound 238, 4-(4-((3r,5r,7r)-adamantan-1-yl)pheoxy)-N,N-dimethylbenzamide]
activity at 20 µM [1]: 40 to 60% | activity at 20 µM [2]: 60 to 70%

CCCCCc1ccc(Oc2ccc(C(=O)NO)cn2)cc1 [Compound 270, N-hydroxy-6-(4-pentylphenoxy)nicotinamide]
activity at 20 µM [1]: 0 to 20% | activity at 20 µM [2]: 0 to 20%

CNC(=O)c1ccc(Oc2ccc(C34CC5CC(CC(C5)C3)C4)cc2)nc1 [Compound 313, 6-(4-((3r,5r,7r)-adamantan-1-yl)phenoxy)-N-methylnicotinamide]
activity at 20 µM [1]: 40 to 60% | activity at 20 µM [2]: 70 to 80%

CN(C)C(=O)c1ccc(Oc2ccc(C(F)(F)F)cc2)nc1 [Compound 325, N,N-dimethyl-6-(4-(trifluoromethyl)phenoxy)nicotinamide]
activity at 20 µM [1]: 80 to 90% | fold induction at 10 µM [3]: 1.2 to 1.3

CN(C)C(=O)c1ccc(Oc2ccc(C3C[C@@H]4CC[C@H]3C4)cc2)nc1 (stereo partly drawn) [Compound 336, 6-(4-((1S,4R)-bicyclo[2.2.1]heptan-2-yl)phenoxy)-N,N-dimethylnicotinamide]
activity at 20 µM [1]: 60 to 70% | fold induction at 10 µM [3]: 1.4 to 1.7

CN(C)C(=O)c1ccc(Oc2ccc(C3CC4CCC3CC4)cc2)nc1 (stereo not shown) [Compound 337, 6-(4-((1s,4s)-bicyclo[2.2.2]octan-2-yl)phenoxy)-N,N-dimethylnicotinamide]
activity at 20 µM [1]: 80 to 90% | fold induction at 10 µM [3]: 1.4 to 1.7

COC(=O)c1ccc(Oc2ccc(C3CCCCC3)cc2)c(F)c1 [Compound 385, methyl 4-(4-cyclohexylphenoxy)-3-fluorobenzoate]
activity at 20 µM [1]: 80 to 90% | fold induction at 10 µM [3]: 1.4 to 1.7

CCCCc1ccc(Oc2ccc(C(=O)OCC)cc2F)cc1 [Compound 395, Ethyl 4-(4-butylphenoxy)-3-fluorobenzoate]
activity at 20 µM [1]: 80 to 90% | fold induction at 10 µM [3]: 1.4 to 1.7

CCOC(=O)c1ccc(Oc2ccc(C(C)(C)CC)cc2)c(F)c1 [Compound 399, ethyl 3-fluoro-4-(4-(tert-pentyl)phenoxy)benzoate]
activity at 20 µM [1]: 80 to 90% | fold induction at 10 µM [3]: 1.1 to 1.2

CCOC(=O)c1ccc(Oc2ccc(C3CCCCC3)cc2)c(F)c1 [Compound 410, ethyl 4-(4-cyclohexylphenoxy)-3-fluorobenzoate]
activity at 20 µM [1]: 70 to 80% | fold induction at 10 µM [3]: 1.4 to 1.7

CCC(C)(C)c1ccc(Oc2ccc(C(=O)NO)cc2F)cc1 [Compound 529, 3-fluoro-N-hydroxy-4-(4-(tert-pentyl)phenoxy)benzamide]
activity at 20 µM [1]: 0 to 20% | activity at 20 µM [2]: 0 to 20%

CN(C)C(=O)c1ccc(Oc2ccc(C34CC5CC(CC(C5)C3)C4)cc2)c(F)c1 [Compound 596, 4-(4-((3r,5r,7r)-adamantan-1-yl)phenoxy)-3-fluoro-N,N-dimethylbenzamide]
activity at 20 µM [1]: 20 to 40% | activity at 20 µM [2]: 80 to 90%

COC(=O)c1ccc(Oc2ccc(C3(C(F)(F)F)CC3)cc2)cc1 [Compound 712, Methyl 4-(4-(1-(trifluoromethyl)cyclopropyl)phenoxy)benzoate]
activity at 20 µM [1]: 80 to 90% | fold induction at 10 µM [3]: 1.1 to 1.2

CN(C)C(=O)c1ccc(Oc2ccc(C3(C(F)(F)F)CC3)cc2)cc1 [Compound 784, N,N-Dimethyl-4-(4-(1-(trifluoromethyl)cyclopropyl)phenoxy)-benzamide]
activity at 20 µM [1]: 40 to 60% | fold induction at 10 µM [3]: 1.2 to 1.3

From patent publication US12600696B2 (XENIOPRO GMBH, priority 2017, dated 2026)
